Test results published in patent US20040242650A1, “Extended dosing regimen” (priority 2003, published 2004).
Marks after values point to notes of the source that are not given here.

What was measured:
[1] = Dose limiting toxicity in patients, 21-day QD or BID dosing; format: in vivo
Procedure: A total of 43 patients were enrolled in the study. The tumor types were as follows: colorectal (23), sarcoma (5), mesothelioma (3), salivary gland (2), endometrial (2), unknown (2), hepatoma (1), melanoma (1), renal cell (1), lung (1), ovary (1), and granulosa cell (1). Patients were treated once a day (QD) or twice a day (BID) for 21 days with N-[2-[(4-hydroxyphenyl)amino]-3-pyridyl]-4-methoxybenzenesulfonamide followed by a 7-day period where no drug was received. Doses were escalated by 50 mg/day (25 mg BID). Three patients were initially treated at each dose level. […] If additional patients experienced dose-limiting toxicity, on occasion the dose level was expanded to nine patients to further assess tolerability. Response assessment was performed every two cycles.

[2] = test system: Calu-6 lung subcutaneous flank xenografts; assay: Calu-6 flank xenograft model; format: in vivo, male nude mice; settings: for Tumor Volume Day 38: mean ± SEM; for % ILS: median, time to 1 cc vs vehicle; for % T/C Day 38: treated vs vehicle
Procedure: (§1) Efficacy of N-[2-[(4-hydroxyphenyl)amino]-3-pyridyl]-4-methoxybenzenesulfonamide was tested in Calu-6 NSCL, MDA-MB-468 breast and HT-29 colon carcinoma xenografts grown in nude mice. The objectives were determination of the efficacy of N-[2-[(4-hydroxyphenyl)amino]-3-pyridyl]-4-methoxybenzenesulfonamide as a single agent and in combination with cisplatin in the Calu-6 NSCL flank xenograft model; determination the efficacy of N-[2-[(4-hydroxyphenyl)amino]-3-pyridyl]-4-methoxybenzenesulfonamide as a single agent and in combination with docetaxel in the MDA-MB 468 breast flank xenograft model; determination of the efficacy of N-[2-[(4-hydroxyphenyl)amino]-3-pyridyl]-4-methoxybenzenesulfonamide as a single agent and in combination with 5-FU in the HT-29 colon flank xenograft model; and comparison the efficacy of N-[2-[(4-hydroxyphenyl)amino]-3-pyridyl]-4-methoxybenzenesulfonamide administered on 2 different schedules (q.d. vs b.i.d.) in the Calu-6 and HT-29 xenogaft model.
(§2) Following inoculation of tumor cells, tumors were passaged three times in mice before using the fragments to generate single cell suspensions. Multiple animals were used as donors. Single cell suspensions were generated by homogenizing the minced tumor tissue in RPMI 1640 media. Cell suspensions were washed three times to remove debris and other foreign materials. Viable cells were counted by trypan blue exclusion technique using a hemocytometer. Mice were injected subcutaneously with 0.5 ml of the cell suspension containing 1×10^6 cells.
Tumor cells were inoculated s.c. into male nude mice on day 0. On day 10, mice bearing established tumors were size matched at ˜233 mm^3 and placed into the following groups:
N-[2-[(4-hydroxyphenyl)amino]-3-pyridyl]-4-methoxybenzenesulfonamide—100, and 75 mg/kg/day (p.o., q.d., 5 days on, 5 days off ×2)
N-[2-[(4-hydroxyphenyl)amino]-3-pyridyl]-4-methoxybenzenesulfonamide—50 and 0 mg/kg/day (p.o., q.d. ×21 or p.o., b.i.d. ×21)
Cisplaitn—20, 10, 8 and 0 mg/kg/day (ip, qd ×1)
Combination Therapy—100/10, 75/10, 100/8 mg/kg/day (p.o., q.d., 5 days on, 5 days off ×2/ip, qd ×1), 50/10 mg/kg/day (p.o., q.d., ×21/ ip, qd ×1)

[3] = test system: HT-29 colon subcutaneous flank xenografts; assay: HT-29 flank xenograft model; format: in vivo, nude mice; settings: for Tumor Volume Day 38: mean ± SEM; for % ILS: median, time to 1 cc vs vehicle; for % T/C Day 38: treated vs vehicle
Procedure: as §1, §2
Tumor cells derived from serially passaged tumor fragments were inoculated s.c. in female nude mice on day 0. On day 10, mice bearing established tumors were size matched at ˜236 mm^3 and placed into the following groups:
1. N-[2-[(4-hydroxyphenyl)amino]-3-pyridyl]-4-methoxybenzenesulfonamide—100, and 75 mg/kg/day (p.o., q.d., 5 days on, 5 days off ×2)
2. N-[2-[(4-hydroxyphenyl)amino]-3-pyridyl]-4-methoxybenzenesulfonamide—50 and 0 mg/kg/day (p.o., q.d. ×21 or p.o., b.i.d. ×21)
Combination Therapy—100/30, 75/30, mg/kg/day (p.o., q.d., 5 days on, 5 days off ×2/ip, qd ×1), 50/10 mg/kg/day (p.o., q.d., ×21/ip, qd ×1).

[4] = 75 mg/kg/day p.o., q.d., (5 days on, 5 days off) x2
[5] = 100 mg/kg/day p.o., q.d., (5 days on, 5 days off) x2
[6] = 100 and 75 mg/kg/day, 5 days on, 5 days off for 2 cycles

COc1ccc(S(=O)(=O)Nc2cccnc2Nc2ccc(O)cc2)cc1 [N-[2-[(4-hydroxyphenyl)amino]-3-pyridyl]-4-methoxybenzenesulfonamide]
dose limiting toxicity ([1]; patients receiving up to 150 mg of drug per day): No dose limiting toxicity | dose limiting toxicities observed ([1]; patients, QD or BID for 21 days followed by 7 days off): ileus, peripheral neuropathy, fatigue, and abdominal pain | Tumor Volume Day 38 ([2]; 50 mg/kg/day p.o., b.i.d x21): 1534 ± 47 mm^3 | % ILS ([2]; 50 mg/kg/day p.o., b.i.d x21): 58*** % | % T/C Day 38 ([2]; 50 mg/kg/day p.o., b.i.d x21): 56*** % | Tumor Volume Day 38 ([2]; 50 mg/kg/day p.o., q.d x21): 1455 ± 65 mm^3 | % ILS ([2]; 50 mg/kg/day p.o., q.d x21): 58*** % | % T/C Day 38 ([2]; 50 mg/kg/day p.o., q.d x21): 54*** % | Tumor Volume Day 38 [2, 4]: 1406 ± 65 mm^3 | % ILS [2, 4]: 58*** % | % T/C Day 38 [2, 4]: 50*** % | Tumor Volume Day 38 [2, 5]: 1022 ± 48 mm^3 | % ILS [2, 5]: 65*** % | % T/C Day 38 [2, 5]: 37*** % | antitumor activity as a single agent [2, 6]: significant antitumor activity | efficacy of combination compared to single agents alone (summary) ([2]; in combination with cisplatin): equal to or greater than additive efficacy | response in combination with cisplatin ([2]; in combination with cisplatin, all three doses tested): greater than additive responses | efficacy q.d. vs b.i.d. (summary) ([2]; q.d. or b.i.d. for 21 days): equal efficacy | efficacy as a single agent (summary) ([2]; single agent): dose-dependent efficacy | Tumor Volume Day 38 ([3]; 50 mg/kg/day p.o., b.i.d x21): 1158 ± 62 mm^3 | % ILS ([3]; 50 mg/kg/day p.o., b.i.d x21): 36*** % | % T/C Day 38 ([3]; 50 mg/kg/day p.o., b.i.d x21): 51*** % | Tumor Volume Day 38 ([3]; 50 mg/kg/day p.o., q.d x21): 1244 ± 55 mm^3 | % ILS ([3]; 50 mg/kg/day p.o., q.d x21): 36*** % | % T/C Day 38 ([3]; 50 mg/kg/day p.o., q.d x21): 55*** % | Tumor Volume Day 38 [3, 4]: 942 ± 46 mm^3 | % ILS [3, 4]: 50*** % | % T/C Day 38 [3, 4]: 43*** % | Tumor Volume Day 38 [3, 5]: 619 ± 40 mm^3 | % ILS [3, 5]: 75*** % | % T/C Day 38 [3, 5]: 28*** % | antitumor activity as a single agent [3, 6]: significant antitumor activity | efficacy of combination compared to single agents alone (summary) ([3]; in combination with 5-FU): equal to or greater than additive efficacy | response in combination with 5-FU ([3]; in combination with 5-FU at 30 mg/kg/day, at the higher doses): additive responses | efficacy q.d. vs b.i.d. (summary) ([3]; q.d. or b.i.d. for 21 days): equal efficacy | efficacy as a single agent (summary) ([3]; single agent): dose-dependent efficacy
